In experiment [1] the test system is Radical scavenging activity. In words: Antioxidant activity assessed as inhibition of DPPH radical production after 30 min by spectrophotometric analysis. The experiment is classed as functional.
A short description of experiment [2]: Antioxidant activity assessed as inhibition of ABTS radical production after 10 min by spectrophotometric analysis. Type of experiment: functional.

≈ marks a conversion by molar mass, not a printed value.

The text below walks through data of ChEMBL document CHEMBL3045898, “Antioxidant phenolic compounds and flavonoids of Mitragyna rotundifolia (Roxb.) Kuntze in vitro” (Med Chem Res, 2010).

Consider `COc1c(O)cc([C@H]2Oc3cc(O)cc(O)c3C[C@@H]2O)cc1O` [4'-O-METHYL-GALLOCATECHIN], for which the IC50 in experiment [1] was 2.57 µg/mL (≈ 8.02 µM); in experiment [2], 0.78 µg/mL (≈ 2.44 µM).

Consider `Oc1cc(O)c2c(c1)O[C@H](c1ccc(O)c(O)c1)[C@H](O)C2` [(-)-EPICATECHIN], for which the values for the 50% inhibitory concentration (IC50) in experiment [1] and in experiment [2] were 1.61 µg/mL (≈ 5.55 µM) and 1.83 µg/mL (≈ 6.3 µM), respectively.

On to `Cc1cc(C(C)(C)C)c(O)c(C(C)(C)C)c1` [BUTYLATED HYDROXYTOLUENE], for which the half-inhibitory concentration (IC50) in experiment [1] came to 18.79 µg/mL (≈ 85.3 µM); in experiment [2] it was 4.555 µg/mL (≈ 20.7 µM).

Turning to `O=C(O)/C=C/c1ccc(O)c(O)c1` [CAFFEIC ACID], the IC50 in experiment [1] stood at 1.8 µg/mL (≈ 9.99 µM); in experiment [2] it was 1.54 µg/mL (≈ 8.55 µM).

For the molecule `Oc1cc(O)c2c(c1)O[C@H](c1ccc(O)c(O)c1)[C@@H](O)C2` [CIANIDANOL], the results for the IC50 in experiment [1] and in experiment [2] were 1.4 µg/mL (≈ 4.82 µM) and 0.56 µg/mL (≈ 1.93 µM), respectively.

`O=c1c(O)c(-c2ccc(O)cc2)oc2cc(O)cc(O)c12` [KAEMPFEROL]: the IC50 in experiment [1] came to 2.51 µg/mL (≈ 8.77 µM); in experiment [2], 1.03 µg/mL (≈ 3.6 µM).

For `CCCOC(=O)c1cc(O)c(O)c(O)c1` [PROPYL GALLATE], the IC50 stood at 0.94 µg/mL (≈ 4.43 µM) in experiment [1] and 0.885 µg/mL (≈ 4.17 µM) in experiment [2].

In the case of `O=C(O)c1ccc(O)c(O)c1` [PROTOCATECHUIC ACID], the IC50 result in experiment [1] is “ND(Insoluble)”; in experiment [2], 2.47 µg/mL (≈ 16 µM).
